≈ marks a conversion by molar mass, not a printed value.
Tests used:
[1] = tested on: advanced breast and ovarian cancers; conditions: cited from earlier work
[2] = tested on: other tumor types; conditions: preliminary investigations; cited from earlier work
[3] = tested on: A549; experiment: In vitro tumor cell cytotoxicity, three day MTT microtiter assay (A549); type: cell-based, human; conditions: A549, 3 days, MTT, absorbance at 570 nm
Experimental: (§1) A three day microtiter assay was used to measure the growth inhibition of cultured cells exposed to a range of drug concentrations. Metabolic activity was measured by the cells' ability to reduce the tetrazolium dye, MTT (3-(4,5-dimethylthiazol-2-yl-2,5-diphenyltetrazolium bromide) to a quantifiable colored end product, which absorbs at 570 nm in the visible spectrum. Surviving cells reduce the MTT dye.
(§2) Test compounds were dissolved in dimethyl sulfoxide (DMSO) and diluted, first with Earle's Balanced Salt Solution, followed by culture medium, to twice the highest concentration of compound to be tested. From this concentrated stock, two-fold serial dilutions were prepared in 96-well microtiter trays, each well containing twice the desired final concentration of compound. Each concentration was tested in triplicate and compared to triplicate drug-free controls.
(§3) The cells were grown in the same medium used for diluting the compounds and then harvested using trypsinization. This involved removing the medium by aspiration; rinsing the cell monolayer twice with Earle's Balanced Salt Solution; adding trypsin (0.05%)/EDTA (0.53 mM; for each 25 cm^2, approximately 0.2 mL), tilting to cover the monolayer, and then withdrawing trypsin leaving only a thin film of solution; incubating at room temperature until the cell monolayers detached (as determined by visual and/or microscopic observation); adding medium contaiing fetal calf serum to stop the action of the trypsin and resuspend the cells; triturating to aid dissociation of cell clumps; and determining the number of cells per milliliter by electronic cell counter (e.g. Coulter Counter) or by mixing an aliquot of cell suspension with Trypan Blue (0.4% in normal saline) and counting the viable cells using a hemacytometer.
(§4) After harvesting and determination of viable cell counts, cell density was adjusted to 25,000 cells/mL. Inoculum (0.1 mL) containing the cells was then added to each well for a final concentration of 2,500 cells per well. Addition of the inoculum diluted the test compounds to the desired final concentration.
(§5) Microtiter trays were then incubated for three days at 36° C. in a humidified atmosphere containing 5% carbon dioxide. After three days, 20 microtiters of 5 mg/mL MTT in phosphate-buffered saline solution were added to each well. Trays were returned to the incubator for two to four hours to allow the surviving cells to reduce the dye. Medium and unreduced dye were removed by aspiration. DMSO was added to each well to dissolve the water-insoluble, colored end product of the dye reduction so that it could be measured spectrophotometrically at 570 nm.

[4] = tested on: P-388; experiment: In vitro tumor cell cytotoxicity, three day MTT microtiter assay (P-388); type: cell-based, mouse; conditions: P-388 (mouse leukemia), 3 days, MTT, absorbance at 570 nm
Experimental: as §1, §2, §3, §4, §5

CC(=O)O[C@H]1C(=O)[C@@]2(C)[C@H]([C@H](OC(=O)c3ccccc3)[C@]3(O)C[C@H](OC(=O)[C@H](O)[C@@H](NC(=O)c4ccccc4)c4ccccc4)C(C)=C1C3(C)C)[C@]1(OC(C)=O)CO[C@@H]1C[C@@H]2O [Taxol]
effectiveness in clinical trials [1]: effective against advanced breast and ovarian cancers in clinical trials | activity against other tumor types [2]: promising activity against a number of other tumor types

CC(=O)O[C@@]12CO[C@@H]1C[C@H](O)[C@]1(C)[C@@H]2[C@H](OC(=O)c2ccccc2)[C@]2(O)C[C@H](OC(=O)[C@H](O)[C@@H](NC(=O)c3ccccc3)c3ccccc3)C(C)=C([C@@H](O)[C@@H]1O)C2(C)C [Example 9, 10-Deacetyl-9-dihydrotaxol]
In vitro tumor cell cytotoxicity (IC50) [3]: 0.011 µg/mL | In vitro tumor cell cytotoxicity (IC50) [4]: 0.14 µg/mL

CC(=O)O[C@@H]1C2=C(C)[C@@H](OC(=O)[C@H](O)[C@@H](NC(=O)c3ccccc3)c3ccccc3)C[C@@](O)([C@@H](OC(=O)c3ccccc3)[C@@H]3[C@]4(OC(C)=O)CO[C@@H]4C[C@@H]4OC(c5ccccc5)O[C@@H]1[C@]43C)C2(C)C (stereo partly drawn) [Example 12, 9-Dihydrotaxol-7,9-benzylidene acetal]
IC50 ([3]; Homo sapiens, 72 h, read-out: In vitro tumor cell cytotoxicity (IC50)): 1 µg/mL (≈ 1.06 µM) | IC50 ([4]; P388, 72 h, read-out: In vitro tumor cell cytotoxicity (IC50)): 1 µg/mL (≈ 1.06 µM)
